Assay results taken from patent publication US20100210682A1, “Repeated Dosing of TRPV1 Antagonists” (ABBOTT LABORATORIES, priority 2009, published 2010).

Assays:
[1] = tested on: MIA-induced osteoarthritic rats; experiment: Osteoarthritic pain model in rats (MIA), weight bearing difference; assay type: in vivo; details: po, 96 h; rat, p.o., acute dosing, 4 days following MIA injection; read-out: ED50, reversal of difference in weight bearing
Protocol: Unilateral knee joint osteoarthritis was induced in the rats by a single intraarticular (i.a.) injection of sodium monoiodoacetate (MIA) (Sigma, St. Louis, Mo.) (3 mg in 0.05 mL sterile isotonic saline) into the joint cavity using a 26 G needle under light (2-4%) halothane (Halocarbon Laboratories, River Edge, N.J.) anesthesia [Bove S E, Calcaterra S L, Brooker R M, Huber C M, Guzman R E, Juneau P L, et al. Weight bearing as a measure of disease progression and efficacy of anti-inflammatory compounds in a model of monosodium iodoacetate-induced osteoarthritis. Osteoarthritis Cartilage 2003; 11:821-30]. […]
MIA-induced nociception can be assessed by measuring differences in weight bearing (WBD) or decrease in grip force (GF) several days to weeks following MIA injection [Bove S E, Calcaterra S L, Brooker R M, Huber C M, Guzman R E, Juneau P L, et al. Weight bearing as a measure of disease progression and efficacy of anti-inflammatory compounds in a model of monosodium iodoacetate-induced osteoarthritis. […]
Differences in weight bearing on the injured vs uninjured hind limb were assessed by placing the animals in an Incapacitance Tester (Linton, Stoelting, Wood Dale, Ill.). […] The animals were allowed to acclimate for approximately 30 s before weight-bearing readings (measured in grams) were recorded. […]

TRPV1 receptor = TRPV1 receptor (Homo sapiens, UniProt Q8NER1); experiment: Block of TRPV1 receptor activation by capsaicin in vitro; assay type: biochemical
[2] = tested on: post-operative thermal hyperalgesia; experiment: Post-operative pain model in rats (skin incision), thermal hyperalgesia; assay type: in vivo; details: po; rat, p.o., acute dosing, 24 h post-injury; read-out: ED50, reversal of thermal hyperalgesia
Protocol: The response to acute thermal stimulation was determined using a commercially available paw thermal stimulator (UARDG, University of California, San Diego, Calif.). Rats were placed individually in Plexiglass cubicles mounted on a glass surface maintained at 30° C., and allowed a 30 min habituation period. A thermal stimulus, in the form of radiant heat emitted from a focused projection bulb, was then applied to the plantar surface of each hind paw. In each test session, each rat was tested in three sequential trials at approximately 5 min intervals. Paw withdrawal latencies (PWLs) were calculated as the mean of the two shortest latencies. An assay cut-off was set at 20.5 s.
As described by Brennan et al. [Brennan T J, Vandermeulen E P, Gebhart G F. Characterization of a rat model of incisional pain. Pain 1996; 64:493-501], a 1 cm longitudinal incision was made through the skin and fascia of the plantar aspect of the foot, starting 0.5 cm from the proximal edge of the heel and extending toward the toes. The plantaris muscle was elevated and incised longitudinally with origin and insertion of the muscle remaining intact. The skin was then closed with two 5-0 nylon mattress sutures. After surgery, the animals were allowed to recover and housed individually with soft bedding. Animals were tested for mechanical allodynia using von Frey hairs and for thermal hyperalgesia as described above. […]

Sequence of TRPV1 receptor (Q8NER1 whole entry): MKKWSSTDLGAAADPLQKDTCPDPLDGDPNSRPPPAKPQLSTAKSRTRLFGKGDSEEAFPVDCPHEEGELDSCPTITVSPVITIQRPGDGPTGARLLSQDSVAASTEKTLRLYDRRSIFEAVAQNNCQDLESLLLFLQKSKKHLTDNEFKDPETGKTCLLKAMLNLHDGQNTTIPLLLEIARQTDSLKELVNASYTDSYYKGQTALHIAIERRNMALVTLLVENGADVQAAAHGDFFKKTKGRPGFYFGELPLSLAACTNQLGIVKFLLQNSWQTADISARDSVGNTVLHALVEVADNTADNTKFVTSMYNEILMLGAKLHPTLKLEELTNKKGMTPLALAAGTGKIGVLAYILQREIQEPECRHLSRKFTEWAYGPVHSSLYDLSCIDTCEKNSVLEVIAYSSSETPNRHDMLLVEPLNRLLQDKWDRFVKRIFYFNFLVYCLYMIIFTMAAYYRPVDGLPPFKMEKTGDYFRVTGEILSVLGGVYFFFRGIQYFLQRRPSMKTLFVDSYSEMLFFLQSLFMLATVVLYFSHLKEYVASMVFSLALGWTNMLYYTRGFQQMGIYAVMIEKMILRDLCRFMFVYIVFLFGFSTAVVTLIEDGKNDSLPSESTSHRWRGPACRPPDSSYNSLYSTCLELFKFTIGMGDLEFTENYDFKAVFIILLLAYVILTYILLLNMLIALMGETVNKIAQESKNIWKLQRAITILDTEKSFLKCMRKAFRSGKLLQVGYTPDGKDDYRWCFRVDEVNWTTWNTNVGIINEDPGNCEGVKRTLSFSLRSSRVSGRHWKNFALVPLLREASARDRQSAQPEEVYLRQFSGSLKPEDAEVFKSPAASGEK

- ability to block TRPV1 receptor activation by capsaicin in vitro (TRPV1 receptor): potent
SMILES: CC(C)(C)c1ccc2c(c1)CC[C@H]2NC(=O)Nc1cccc2[nH]ncc12 [Compound A, N-[(1R)-5-tert-butyl-2,3-dihydro-1H-inden-1-yl]-N′-1H-indazol-4-ylurea]
- ED50 [1]: 30 µmol/kg
- ED50 [2]: 40 µmol/kg
